US11702422B2, “Imidazopyridazines as modulators of IL-17” (Janssen Pharmaceutica NV, priority 2020, dated 2023)
pIC50: −log10 of the molar value.

Legend:
[1] = target: IL-17A(FLAG-Tagged): IL-17RA(His-Tagged) (Homo sapiens, UniProt Q16552, K93Q); assay: IL-17A(FLAG-Tagged): IL-17RA(His-Tagged) Binding Disruption Eu-HTRF Assay; conditions: IL-17A/IL-17RA binding disruption, simple average if tested more than once
Description: IL-17A(FLAG-Tagged): IL-17RA(His-Tagged) Binding Disruption Eu-HTRF Assay
An antibody directed against the FLAG tag of IL-17A (SEQ ID NO:1) is labeled with the HTRF donor chromophore (Europium-cryptate). IL-17A is present as a dimer that is “locked into” this quaternary structure due to the formation of loop-spanning […] disulfide bridges. The construct of IL-17RA used in the assay excludes the […] portion of the receptor and is fused to a C-terminal 10×His tag (SEQ ID NO:2). An antibody directed against the His tag of the IL-17RA chimera is labeled with the HTRF acceptor chromophore (“D2”). The fluorescence-resonance energy transfer (FRET) depends on the vicinity of the donor chromophore to the acceptor, and interruption of the binding between the IL-17A and IL-17RA causes the reduction/loss of FRET. Therefore, this assay allows to evaluate the compound effect on the binding IL-17A and IL-17RA by monitoring the fluorescence intensity of donor vs acceptor. The assay is run as described below.
40 nl of 2-fold serial diluted compound solution for total 22 dilution points is added into each well of a 1536-well, white, low-volume, non-binding plate (Greiner #782904), then 2 μl of FLAG tagged IL-17A at 2× final concentration (2.5 nM) in solution of PBS+0.01% Triton-X100 is added to each well. The assay plate is briefly centrifuged then incubated for 1 h at rt. A mixed solution is prepared containing 2×5 nM 10HIS×IL-17RA, 2×2.5 nM Eu-anti-FLAG (CISBIO), 2×5 nM D2-anti-HIS (CISBIO) in PBS+0.01% Triton-X100+200 mM Potassium Fluoride (Sigma 60238) and 2 μl of mix is added to each well of the assay plate. The plate is briefly centrifuged then incubated for 2 h at rt. The HTRF intensities at the wavelength of donor (620 nm) and acceptor (665 nm) are measured using BMG Pherastar. The ratio between intensities at two wavelengths is calculated and plotted against the compound concentration and the data is fitted to a one-site competition model to yield IC50 of the compound.

[2] = system: IL-17A-induced G-CSF production in human normal keratinocyte (NHK); assay: NHK Assay: IL-17A-induced G-CSF production in human normal keratinocytes; format: cell-based; conditions: 24 h, adult normal human keratinocytes, IL-17A 5 ng/mL, simple average if tested more than once
Description: IL-17A acts directly on keratinocytes through binding to dimeric receptor IL-17RA/RC and drives the production of a number of inflammatory mediators known to be elevated in psoriasis lesional tissue. IL-17A small molecule inhibitors that block the IL-17A to interact with IL-17R would inhibit the IL-17A signaling in its targeted cells such as keratinocytes. The compound functional activity is evaluated for its impact on IL-17A-induced G-CSF production in human normal keratinocyte (NHK).
Adult normal human keratinocytes are cultured in keratinocyte growth medium (Lonza) in a flask till reaching ˜ 90% confluence, then cells are transferred to a 384-well plate at density of 3000-4000 cell/well. Recombinant human IL-17A (Gibco PHC9174) is pre-incubated with titrated compound or DMSO for 1 h at rt then added to the cell culture plate. The final concentration of IL-17A is 5 ng/mL and DMSO is 0.2%, in the culture containing 5% FBS. Cells are cultured/treated for 24 h at 37° C. Supernatants are collected and G-CSF production is measured through HTRF technology using Human G-CSF Kit (CisBio). G-CSF concentration was extrapolated from the standard curve and IC50 is determined using GraphPad Prism. Cell viability is also evaluated using CellTiter-Glo kit (Promega) and effect of compound on cell viability is compared to DMSO control.

Chain of UniProt Q16552 (Q16552 with tags, fused parts or gaps K93Q): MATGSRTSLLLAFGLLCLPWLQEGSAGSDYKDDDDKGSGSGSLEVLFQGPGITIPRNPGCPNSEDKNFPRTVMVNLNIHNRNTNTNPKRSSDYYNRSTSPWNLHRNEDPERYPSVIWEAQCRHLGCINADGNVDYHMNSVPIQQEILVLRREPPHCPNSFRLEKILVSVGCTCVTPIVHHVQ

SMILES	pIC50 [1]	pIC50 ([2]; Homo sapiens, Keratinocyte)	pIC50 [2]
Cc1cc(C(=O)N[C@H](c2cn3ncc([C@H](NC(=O)CCC(F)(F)F)C4CC4)cc3n2)C2CCC(F)(F)CC2)n(C(C)C)n1 [Example 78, N—((S)-(7-((R)-Cyclopropyl(4,4,4-trifluorobutanamido)methyl)imidazo[1,2-b]pyridazin-2-yl)(4,4-difluorocyclohexyl)methyl)-1-isopropyl-3-methyl-1H-pyrazole-5-carboxamide]	6.59	6.48	–
Cc1nonc1C(=O)N[C@H](c1cn2ncc([C@H](NC(=O)C(C)CC(F)(F)F)C3CC3)cc2n1)C1CCC(F)(F)CC1 (single isomer, unassigned) [Example 346, N—((S)-(7-((R)-Cyclopropyl((R*)-4,4,4-trifluoro-2-methylbutanamido)methyl)imidazo[1,2-b]pyridazin-2-yl)(4,4-difluorocyclohexyl)methyl)-4-methyl-1,2,5-oxadiazole-3-carboxamide]	6.82	–	6.36
Cc1nocc1C(=O)N[C@H](c1cn2ncc([C@H](NC(=O)CC(C)C(F)(F)F)C3CC3)cc2n1)C1CCC(F)(F)CC1 (single isomer, unassigned) [Example 124, N—((S)-(7-((R)-Cyclopropyl((S*)-4,4,4-trifluoro-3-methylbutanamido)methyl)imidazo[1,2-b]pyridazin-2-yl)(4,4-difluorocyclohexyl)methyl)-3-methylisoxazole-4-carboxamide]	6.96	–	6.16
CC(C)n1nccc1C(=O)N[C@H](c1cn2ncc(C(NC(=O)CCC(F)(F)F)C3CCC3)cc2n1)C1CCC(F)(F)CC1 (single isomer, unassigned) [Example 490, N—((S)-(7-((R*)-Cyclobutyl(4,4,4-trifluorobutanamido)methyl)imidazo[1,2-b]pyridazin-2-yl)(4,4-difluorocyclohexyl)methyl)-1-isopropyl-1H-pyrazole-5-carboxamide]	6.82	7.17	–
O=C(CCC(F)(F)F)N[C@@H](c1cnn2cc([C@@H](NC(=O)c3ccnn3C(CF)CF)C3CCC(F)(F)CC3)nc2c1)C1CC1 [Example 69, N—((S)-(7-((R)-Cyclopropyl(4,4,4-trifluorobutanamido)methyl)imidazo[1,2-b]pyridazin-2-yl)(4,4-difluorocyclohexyl)methyl)-1-(1,3-difluoropropan-2-yl)-1H-pyrazole-5-carboxamide]	6.96	7.26	–
CC(C)(O)Cc1nonc1C(=O)N[C@H](c1cn2ncc([C@H](NC(=O)CC3CC(F)(F)C3)C3CC3)cc2n1)C1CCC(F)(F)CC1 [Example 394, N—((S)-(7-((R)-Cyclopropyl(2-(3,3-difluorocyclobutyl)acetamido)methyl)imidazo[1,2-b]pyridazin-2-yl)(4,4-difluorocyclohexyl)methyl)-4-(2-hydroxy-2-methylpropyl)-1,2,5-oxadiazole-3-carboxamide]	6.70	6.62	–
O=C(CCC(F)(F)F)N[C@@H](c1cnn2cc([C@@H](NC(=O)c3cnn(CCN4CC(F)(F)C4)n3)C3CCC(F)(F)CC3)nc2c1)C1CC1 [Example 485, N—[(S)-[7-[(R)-Cyclopropyl-(4,4,4-trifluorobutanamido)methyl]imidazo[1,2-b]pyridazin-2-yl]-(4,4-difluorocyclohexyl)methyl]-2-[2-(3,3-difluoroazetidin-1-yl)ethyl]triazole-4-carboxamide]	6.04	6.51	–
CC(C)n1nccc1C(=O)N[C@H](c1cn2ncc([C@H](NC(=O)CO[C@H](C)C(F)(F)F)C3CC3)cc2n1)C1CCC(F)(F)CC1 (single isomer, unassigned) [Example 311]	6.68	6.48	–
O=C(CCC(F)(F)F)NC(c1cnn2cc([C@@H](NC(=O)c3cnnn3CCC(F)(F)F)C3CCC(F)(F)CC3)nc2c1)C1CC1 (single isomer, unassigned) [Example 71, N—((S)-(7-((R*)-Cyclopropyl(4,4,4-trifluorobutanamido)methyl)imidazo[1,2-b]pyridazin-2-yl)(4,4-difluorocyclohexyl)methyl)-1-(3,3,3-trifluoropropyl)-1H-1,2,3-triazole-5-carboxamide]	7.00	6.74	–
O=C(CC1CC(F)(F)C1)N[C@@H](c1cnn2cc([C@@H](NC(=O)c3nonc3C3CC3)C3CCC(F)(F)CC3)nc2c1)C1CCOCC1 (relative stereo) [Example 536, 4-Cyclopropyl-N—((S)-(7-((R*)-1-(2-(3,3-difluorocyclobutyl)acetamido)(tetrahydro-2H-pyran-4-yl)methylimidazo[1,2-b]pyridazin-2-yl)(4,4-difluorocyclohexyl)methyl)-1,2,5-oxadiazole-3-carboxamide]	7.31	7.92	–
Cc1nonc1C(=O)N[C@H](c1cn2ncc([C@H](NC(=O)CCC(F)F)C3CC3)cc2n1)C1CCC(F)(F)CC1 [Example 250, N—((S)-(7-((R)-Cyclopropyl(4,4-difluorobutanamido)methyl)imidazo[1,2-b]pyridazin-2-yl)(4,4-difluorocyclohexyl)methyl)-4-methyl-1,2,5-oxadiazole-3-carboxamide]	7.01	6.41	–
Cc1nonc1C(=O)N[C@@H](CC(C)(C)C(F)(F)F)c1cn2ncc([C@H](NC(=O)CC3CC(F)(F)C3)C3CC3)cc2n1 [Example 544, N—((S)-1-(7-((R)-Cyclopropyl(2-(3,3-difluorocyclobutyl)acetamido)methyl)imidazo[1,2-b]pyridazin-2-yl)-4,4,4-trifluoro-3,3-dimethylbutyl)-4-methyl-1,2,5-oxadiazole-3-carboxamide]	6.92	6.62	–
Cc1nonc1C(=O)N[C@@H](COC(C)(C)C)c1cn2ncc(C(NC(=O)CCC(F)(F)F)C3CC3)cc2n1 (single isomer, unassigned) [Example 315, N—((R)-2-(tert-Butoxy)-1-(7-((S*)-cyclopropyl(4,4,4-trifluorobutanamido)methyl)imidazo[1,2-b]pyridazin-2-yl)ethyl)-4-methyl-1,2,5-oxadiazole-3-carboxamide]	4.89	–	< 4.70
O=C(CCC(F)(F)F)N[C@@H](c1cnn2cc([C@@H](NC(=O)C3CC34CCC4)C3CCC(F)(F)CC3)nc2c1)C1CC1 (stereo partly drawn) [Example 45, N—((S)-(7-((R)-Cyclopropyl(4,4,4-trifluorobutanamido)methyl)imidazo[1,2-b]pyridazin-2-yl)(4,4-difluorocyclohexyl)methyl)spiro[2.3]hexane-1-carboxamide]	6.62	6.15	–
O=C(CCC(F)(F)F)N[C@@H](c1cnn2cc([C@@H](NC(=O)c3ccnc(C4CC4)n3)C3CCC(F)(F)CC3)nc2c1)C1CC1 [Example 216, 2-Cyclopropyl-N—((S)-(7-((R)-cyclopropyl(4,4,4-trifluorobutanamido)methyl)imidazo[1,2-b]pyridazin-2-yl)(4,4-difluorocyclohexyl)methyl)pyrimidine-4-carboxamide]	5.80	< 4.70	–
Cc1nonc1C(=O)N[C@H](c1cn2ncc(C(CC3CCC3)NC(=O)CC3CC(F)(F)C3)cc2n1)C1CCC(F)(F)CC1 (single isomer, unassigned) [Example 439, N—((S)-(7-((S*)-2-Cyclobutyl-1-(2-(3,3-difluorocyclobutyl)acetamido)ethyl)imidazo[1,2-b]pyridazin-2-yl)(4,4-difluorocyclohexyl)methyl)-4-methyl-1,2,5-oxadiazole-3-carboxamide]	7.00	–	6.82
